According to patent US12195469B2, “Compounds having PDE9A inhibitory activity, and pharmaceutical uses thereof” (KOREA RESEARCH INSTITUTE OF CHEMICAL TECHNOLOGY, priority 2018, dated 2025):

Each molecule was assayed against PDE9A (Homo sapiens (Human), UniProt O76083) (assay: PDE9A inhibition, fluorescence polarization assay (IMAP-FP screening express kit)). Conditions: 10 μM of the compound.
Type: biochemical
Description: The inhibitory activity of the representative compounds according to the present invention against phosphodiesterase 9A was tested based on the polarization assay (IMAP-FP screening express kit) provided by MDS (MDS Analytical Technologies, Sunyvale, CA, USA). As a buffer solution, a reaction solution (a reaction solution containing 0.01% Tween 20 provided by MDS was diluted 5 times, then 5 mM DTT is added) and a polarization detection solution (binding solution A and B provided by MDS were mixed at a ratio of 3:1 and IMAP binding reagent 1/600 was added) were prepared. 100 μM of the substrate (Fl-cGMP substrate; MDS) and 3.6 μg/ml of the enzyme PDE9A (ab54113; abcam) were prepared. 3.6 μg/ml PDE9A and 100 μM substrate were diluted to 20 ng/ml (final reaction concentration: 5 ng/ml) and 400 nM (final reaction concentration: 100 nM), respectively. The buffer solution used for all dilution and preparation processes was 1× reaction solution with 1 mM DTT added, and the polarization detection solution was used to induce polarization at the end.
The prepared samples were dispensed on black microplates (Multiwell 384 well plates, #3573, Corning Life Sciences, Lowell, MA, USA) using a 16-channel pipette (multi 16-channel, Finnpipette, Thermo Scientific, Essex, UK). The total reaction volume per well is 20 μl. At this time, 10 μl of 2% DMSO, 5 μl of substrate solution, and 5 μl of reaction solution were used as a negative control, and 10 μl of 2% DMSO, 5 μl of substrate solution, and 5 μl of PDE9A solution were used as a positive control. As the experimental group, 10 μl of the compound prepared in Example, 5 μl of the substrate solution, and 5 μl of the PDE9A solution were used. After pretreatment between the compound and the enzyme was performed for about 10 minutes before the enzyme-substrate reaction, 5 μl of cGMP was added to induce the enzyme reaction. During the reaction, each compound, enzyme, and substrate occupied 50%, 25%, and 25% of the total volume, respectively, and they were prepared at high concentrations of 2, 4, and 4 times, respectively, immediately before addition. After the enzymatic reaction, it was shaken lightly for 1 minute and the enzyme reaction was induced at room temperature for 1 hour. Then, 60 μl of a polarization detection solution prepared in advance was added to induce polarization.
Nanoparticles composed of trivalent metal ions are mixed in the fluorescence detection solution, which combines with phosphoric acid expose by enzymatic reaction to increase the molecular weight and induce polarization. After leaving for 2 hours at room temperature, the polarization (Fluorescence Polarization, FP) value was measured using a multilabel counter (Envision, PerkinElmer, Turku, Finland) (emission wavelength: P-535 nm, S-535 nm, excitation wavelength: 480 nm), and the result was expressed as an IC50 value, which is the concentration of the compound that inhibited PDE9A by 50% in vitro (Table 2).

Chain of PDE9A (O76083 whole entry): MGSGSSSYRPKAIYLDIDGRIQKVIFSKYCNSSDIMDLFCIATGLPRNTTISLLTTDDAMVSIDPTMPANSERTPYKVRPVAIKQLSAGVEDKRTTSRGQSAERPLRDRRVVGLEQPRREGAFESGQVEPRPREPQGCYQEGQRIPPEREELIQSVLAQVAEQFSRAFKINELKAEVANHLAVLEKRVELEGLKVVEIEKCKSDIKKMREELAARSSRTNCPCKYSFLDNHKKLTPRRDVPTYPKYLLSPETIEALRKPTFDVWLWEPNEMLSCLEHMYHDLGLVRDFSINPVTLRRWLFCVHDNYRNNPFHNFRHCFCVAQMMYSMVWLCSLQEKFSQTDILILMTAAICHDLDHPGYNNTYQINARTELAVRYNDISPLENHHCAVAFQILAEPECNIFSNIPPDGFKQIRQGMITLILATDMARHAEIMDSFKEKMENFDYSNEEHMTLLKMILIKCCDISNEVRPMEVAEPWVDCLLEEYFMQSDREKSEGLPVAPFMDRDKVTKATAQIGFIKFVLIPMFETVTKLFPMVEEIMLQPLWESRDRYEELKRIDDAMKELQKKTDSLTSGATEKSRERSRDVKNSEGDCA

inhibition at 10 µM [%] | SMILES
51.5 | O=c1[nH]c(SCc2nc3ccc([N+](=O)[O-])cc3o2)nc2c1cnn2-c1ccccc1 [Example 28, 6-(((6-nitrobenzo[d]oxazol-2-yl)methyl)thio)-1-phenyl-1,5-dihydro-4H-pyrazolol[3,4-d]pyrimidin-4-one]
38.9 | O=c1[nH]c(SCc2nc3cc(Cl)c([N+](=O)[O-])cc3o2)nc2c1cnn2-c1ccccc1 [Example 31]
27.7 | O=c1[nH]c(SCc2nc3cc(Cl)cc(Cl)c3o2)nc2c1cnn2-c1ccccc1 [Example 32, 6-(((5,7-dichlorobenzo[d]oxazol-2-yl)methyl)thio)-1-phenyl-1,5-dihydro-4H-pyrazolo[3,4-d]pyrimidin-4-one]
83.6 | COc1ccc2nc(CSc3nc4c(cnn4-c4ccccc4)c(=O)[nH]3)oc2c1 [Example 35, 6-(((6-methoxybenzo[d]oxazol-2-yl)methyl)thio)-1-phenyl-1,5-dihydro-4H-pyrazolo[3,4-d]pyrimidin-4-one]

Same assay, conditions: Fl-cGMP substrate 100 nM, PDE9A 5 ng/ml, 1 hour at room temperature

SMILES | IC50 [nM]
O=c1[nH]c(SCc2nc3cc([N+](=O)[O-])ccc3o2)nc2c1cnn2-c1ccccc1 [Example 29, 6-(((5-nitrobenzo[d]oxazol-2-yl)methyl)thio)-1-phenyl-1,5-dihydro-4H-pyrazolo[3,4-d]pyrimidin-4-one] | 2400
O=c1[nH]c(SCc2nc3c([N+](=O)[O-])cccc3o2)nc2c1cnn2-c1ccccc1 [Example 30, 6-(((4-nitrobenzo[d]oxazol-2-yl)methyl)thio)-1-phenyl-1,5-dihydro-4H-pyrazolo[3,4-d]pyrimidin-4-one] | 1720
Cc1cc(C)c2oc(CSc3nc4c(cnn4-c4ccccc4)c(=O)[nH]3)nc2c1 [Example 33, 6-(((5,7-dimethylbenzo[d]oxazol-2-yl)methyl)thio)-1-phenyl-1,5-dihydro-4H-pyrazolo[3,4-d]pyrimidin-4-one] | 950
COc1ccc2oc(CSc3nc4c(cnn4-c4ccccc4)c(=O)[nH]3)nc2c1 [Example 34, 6-(((5-methoxybenzo[d]oxazol-2-yl)methyl)thio)-1-phenyl-1,5-dihydro-4H-pyrazolo[3,4-d]pyrimidin-4-one] | 120
O=c1[nH]c(SCc2nc3cc(C(F)(F)F)ccc3o2)nc2c1cnn2-c1ccccc1 [Example 36, 1-phenyl-6-(((5-(trifluoromethyl)benzo[d]oxazol-2-yl)methyl)thio)-1,5-dihydro-4H-pyrazolo[3,4-d]pyrimidin-4-one] | 34100
O=c1[nH]c(SCc2nc3ccc([N+](=O)[O-])cc3o2)nc2c1cnn2C1CCC(F)(F)CC1 [Example 37, 1-(4,4-difluorocyclohexyl)-6-(((6-nitrobenzo[d]oxazol-2-yl)methyl)thio)-1,5-dihydro-4H-pyrazolo[3,4-d]pyrimidin-4-one] | 74
O=c1[nH]c(SCc2nc3cc([N+](=O)[O-])ccc3o2)nc2c1cnn2C1CCC(F)(F)CC1 [Example 38, 1-(4,4-difluorocyclohexyl)-6-(((5-nitrobenzo[d]oxazol-2-yl)methyl)thio)-1,5-dihydro-4H-pyrazolo[3,4-d]pyrimidin-4-one] | 45
O=c1[nH]c(SCc2nc3c([N+](=O)[O-])cccc3o2)nc2c1cnn2C1CCC(F)(F)CC1 [Example 39, 1-(4,4-difluorocyclohexyl)-6-(((4-nitrobenzo[d]oxazol-2-yl)methyl)thio)-1,5-dihydro-4H-pyrazolo[3,4-d]pyrimidin-4-one] | 77
O=c1[nH]c(SCc2nc3cc(Cl)c([N+](=O)[O-])cc3o2)nc2c1cnn2C1CCC(F)(F)CC1 [Example 40, 6-(((5-chloro-6-nitrobenzo[d]oxazol-2-yl)methyl)thio)-1-(4,4-difluorocyclohexyl)-1,5-dihydro-4H-pyrazolo[3,4-d]pyrimidin-4-one] | 1660
CC(C)(C)c1ccc2oc(CSc3nc4c(cnn4C4CCC(F)(F)CC4)c(=O)[nH]3)nc2c1 [Example 42, 6-(((5-(tert-butyl)benzo[d]oxazol-2-yl)methyl)thio)-1-(4,4-difluorocyclohexyl)-1,5-dihydro-4H-pyrazolo[3,4-d]pyrimidin-4-one] | 130
O=c1[nH]c(SCc2nc3cc(Cl)cc(Cl)c3o2)nc2c1cnn2C1CCC(F)(F)CC1 [Example 43, 6-(((5,7-dichlorobenzo[d]oxazol-2-yl)methyl)thio)-1-(4,4-difluorocyclohexyl)-1,5-dihydro-4H-pyrazolo[3,4-d]pyrimidin-4-one] | 120
O=c1[nH]c(SCc2nc3cc(C(F)(F)F)ccc3o2)nc2c1cnn2C1CCC(F)(F)CC1 [Example 47, 1-(4,4-difluorocyclohexyl)-6-(((5-(trifluoromethyl)benzo[d]oxazol-2-yl)methyl)thio)-1,5-dihydro-4H-pyrazolo[3,4-d]pyrimidin-4-one] | 120
O=c1[nH]c(SCc2nc3c([N+](=O)[O-])cccc3o2)nc2c1cnn2C1CCOCC1 [Example 50, 6-(((4-nitrobenzo[d]oxazol-2-yl)methyl)thio)-1-(tetrahydro-2H-pyran-4-yl)-1,5-dihydro-4H-pyrazolo[3,4-d]pyrimidin-4-one] | 130
CC(C)(C)c1ccc2oc(CSc3nc4c(cnn4C4CCOCC4)c(=O)[nH]3)nc2c1 [Example 53, 6-(((5-(tert-butyl)benzo[d]oxazol-2-yl)methyl)thio)-1-(tetrahydro-2H-pyran4-yl)-1,5-dihydro-4H-pyrazolo[3,4-d]pyrimidin-4-one] | 45

Now from value to molecule:

IC50 [nM] | SMILES
35 | O=c1[nH]c(SCc2nc3cc(Cl)c([N+](=O)[O-])cc3o2)nc2c1cnn2C1CCOCC1 [Example 51, 6-(((5-chloro-6-nitrobenzo[d]oxazol-2-yl)methyl)thio)-1-(tetrahydro-2H-pyran-4-yl)-1,5-dihydro-4H-pyrazolo[3,4-d]pyrimidin-4-one]
32 | O=c1[nH]c(SCc2nc3cc([N+](=O)[O-])ccc3o2)nc2c1cnn2C1CCOCC1 [Example 49, 6-(((5-nitrobenzo[d]oxazol-2-yl)methyl)thio)-1-(tetrahydro-2H-pyran-4-yl)-1,5-dihydro-4H-pyrazolo[3,4-d]pyrimidin-4-one]
23 | O=c1[nH]c(SCc2nc3ccc([N+](=O)[O-])cc3o2)nc2c1cnn2C1CCOCC1 [Example 48, 6-(((6-nitrobenzo[d]oxazol-2-yl)methyl)thio)-1-(tetrahydro-2H-pyran-4-yl)-1,5-dihydro-4H-pyrazolo[3,4-d]pyrimidin-4-one]
22 | Cc1cccc2oc(CSc3nc4c(cnn4C4CCC(F)(F)CC4)c(=O)[nH]3)nc12 [Example 41, 1-(4,4-difluorocyclohexyl)-6-(((4-methylbenzo[d]oxazol-2-yl)methyl)thio)-1,5-dihydro-4H-pyrazolo[3,4-d]pyrimidin-4-one]
19 | O=c1[nH]c(SCc2nc3cc(Cl)cc(Cl)c3o2)nc2c1cnn2C1CCOCC1 [Example 54, 6-(((5,7-dichlorobenzo[d]oxazol-2-yl)methyl)thio)-1-(tetrahydro-2H-pyran4-yl)-1,5-dihydro-4H-pyrazolo[3,4-d]pyrimidin-4-one]
17 | Cc1cccc2oc(CSc3nc4c(cnn4C4CCOCC4)c(=O)[nH]3)nc12 [Example 52, 6-(((4-methylbenzo[d]oxazol-2-yl)methyl)thio)-1-(tetrahydro-2H-pyran-4-yl)-1,5-dihydro-4H-pyrazolo[3,4-d]pyrimidin-4-one]
15 | Cc1cc(C)c2oc(CSc3nc4c(cnn4C4CCC(F)(F)CC4)c(=O)[nH]3)nc2c1 [Example 44, 1-(4,4-difluorocyclohexyl)-6-(((5,7-dimethylbenzo[d]oxazol-2-yl)methyl)thio)-1,5-dihydro-4H-pyrazolo[3,4-d]pyrimidin-4-one]
8 | COc1ccc2oc(CSc3nc4c(cnn4C4CCC(F)(F)CC4)c(=O)[nH]3)nc2c1 [Example 45, 1-(4,4-difluorocyclohexyl)-6-(((5-methoxybenzo[d]oxazol-2-yl)methyl)thio)-1,5-dihydro-4H-pyrazolo[3,4-d]pyrimidin-4-one]
3 | COc1ccc2nc(CSc3nc4c(cnn4C4CCC(F)(F)CC4)c(=O)[nH]3)oc2c1 [Example 46, 1-(4,4-difluorocyclohexyl)-6-(((6-methoxybenzo[d]oxazol-2-yl)methyl)thio)-1,5-dihydro-4H-pyrazolo[3,4-d]pyrimidin-4-one]
